According to BindingDB's records for doi:10.1016/j.ejmech.2008.01.010 (Universit&#233, 2008):
Counter-ions that a name gives are not always drawn.

What was measured:
[1] = target: Vascular endothelial growth factor receptor 2 (Homo sapiens, UniProt P35968); experiment: Inhibition of KDR
[2] = target: Insulin-like growth factor 1 receptor (Homo sapiens, UniProt P08069); experiment: Inhibition of IGF1R
[3] = target: Hepatocyte growth factor receptor (Homo sapiens, UniProt P08581); experiment: Inhibition of cMet
[4] = target: Proto-oncogene tyrosine-protein kinase receptor Ret (Homo sapiens, UniProt P07949); experiment: Inhibition of Ret
[5] = target: Proto-oncogene tyrosine-protein kinase Src (Homo sapiens, UniProt P12931); experiment: Inhibition of Src
[6] = target: Tyrosine-protein kinase ABL1 (Homo sapiens, UniProt P00519); experiment: Inhibition of c-Abl
Tyrosine-protein kinase ABL1, sequence (P00519 whole entry): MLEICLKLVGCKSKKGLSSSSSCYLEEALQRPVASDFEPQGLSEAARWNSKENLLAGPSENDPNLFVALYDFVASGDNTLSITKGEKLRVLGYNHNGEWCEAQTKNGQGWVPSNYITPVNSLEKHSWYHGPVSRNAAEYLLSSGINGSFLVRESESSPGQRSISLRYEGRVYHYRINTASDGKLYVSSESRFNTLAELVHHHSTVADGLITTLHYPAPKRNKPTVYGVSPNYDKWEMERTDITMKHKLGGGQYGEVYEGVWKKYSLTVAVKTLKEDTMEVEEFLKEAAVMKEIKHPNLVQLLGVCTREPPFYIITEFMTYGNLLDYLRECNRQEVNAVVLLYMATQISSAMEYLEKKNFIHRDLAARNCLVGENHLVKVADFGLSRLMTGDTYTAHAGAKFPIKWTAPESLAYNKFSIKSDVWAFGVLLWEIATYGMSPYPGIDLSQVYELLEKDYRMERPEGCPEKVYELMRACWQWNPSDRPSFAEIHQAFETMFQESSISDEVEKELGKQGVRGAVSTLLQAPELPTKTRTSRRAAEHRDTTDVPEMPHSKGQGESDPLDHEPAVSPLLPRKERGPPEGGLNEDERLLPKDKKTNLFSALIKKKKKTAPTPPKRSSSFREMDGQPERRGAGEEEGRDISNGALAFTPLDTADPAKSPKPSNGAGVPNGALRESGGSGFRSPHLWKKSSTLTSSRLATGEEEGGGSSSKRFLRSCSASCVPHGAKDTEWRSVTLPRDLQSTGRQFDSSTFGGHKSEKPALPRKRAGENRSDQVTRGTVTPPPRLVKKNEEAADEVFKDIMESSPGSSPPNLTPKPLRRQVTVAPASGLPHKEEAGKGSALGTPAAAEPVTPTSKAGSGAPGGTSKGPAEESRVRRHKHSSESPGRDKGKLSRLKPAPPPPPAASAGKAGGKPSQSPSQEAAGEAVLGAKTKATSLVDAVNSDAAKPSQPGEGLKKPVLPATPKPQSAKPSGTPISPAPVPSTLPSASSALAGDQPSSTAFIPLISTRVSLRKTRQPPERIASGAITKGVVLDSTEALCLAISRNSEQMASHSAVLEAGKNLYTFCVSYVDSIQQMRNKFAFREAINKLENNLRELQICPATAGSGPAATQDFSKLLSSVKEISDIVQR

Proto-oncogene tyrosine-protein kinase receptor Ret, sequence (P07949 whole entry): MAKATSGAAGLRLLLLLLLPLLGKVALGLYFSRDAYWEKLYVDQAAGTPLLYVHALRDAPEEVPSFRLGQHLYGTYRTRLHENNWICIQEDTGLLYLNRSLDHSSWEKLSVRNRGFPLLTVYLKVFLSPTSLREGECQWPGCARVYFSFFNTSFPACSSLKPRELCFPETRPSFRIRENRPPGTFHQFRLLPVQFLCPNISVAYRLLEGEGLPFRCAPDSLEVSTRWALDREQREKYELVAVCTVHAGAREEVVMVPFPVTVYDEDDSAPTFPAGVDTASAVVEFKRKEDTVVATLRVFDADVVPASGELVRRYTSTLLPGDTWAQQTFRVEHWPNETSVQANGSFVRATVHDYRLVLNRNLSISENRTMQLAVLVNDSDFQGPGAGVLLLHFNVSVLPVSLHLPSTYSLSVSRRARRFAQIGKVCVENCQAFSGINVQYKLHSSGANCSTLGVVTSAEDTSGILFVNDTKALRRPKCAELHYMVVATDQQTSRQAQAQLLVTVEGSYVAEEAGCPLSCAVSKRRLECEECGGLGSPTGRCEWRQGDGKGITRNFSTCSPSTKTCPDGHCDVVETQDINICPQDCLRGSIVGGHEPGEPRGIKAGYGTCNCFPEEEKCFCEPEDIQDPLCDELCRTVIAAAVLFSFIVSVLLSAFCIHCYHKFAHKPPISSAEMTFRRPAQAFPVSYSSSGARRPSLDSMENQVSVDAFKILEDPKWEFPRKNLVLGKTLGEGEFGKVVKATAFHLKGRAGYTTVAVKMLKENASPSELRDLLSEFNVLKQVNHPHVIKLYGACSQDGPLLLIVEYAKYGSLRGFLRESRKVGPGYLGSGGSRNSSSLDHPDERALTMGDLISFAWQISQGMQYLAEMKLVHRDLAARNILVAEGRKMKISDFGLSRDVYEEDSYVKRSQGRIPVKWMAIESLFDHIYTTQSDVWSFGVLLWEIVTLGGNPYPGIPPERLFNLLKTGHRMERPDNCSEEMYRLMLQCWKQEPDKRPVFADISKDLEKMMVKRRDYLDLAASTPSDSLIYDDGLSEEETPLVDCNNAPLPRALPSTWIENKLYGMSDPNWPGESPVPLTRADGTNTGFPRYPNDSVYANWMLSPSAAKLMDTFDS
Hepatocyte growth factor receptor, sequence (P08581 whole entry): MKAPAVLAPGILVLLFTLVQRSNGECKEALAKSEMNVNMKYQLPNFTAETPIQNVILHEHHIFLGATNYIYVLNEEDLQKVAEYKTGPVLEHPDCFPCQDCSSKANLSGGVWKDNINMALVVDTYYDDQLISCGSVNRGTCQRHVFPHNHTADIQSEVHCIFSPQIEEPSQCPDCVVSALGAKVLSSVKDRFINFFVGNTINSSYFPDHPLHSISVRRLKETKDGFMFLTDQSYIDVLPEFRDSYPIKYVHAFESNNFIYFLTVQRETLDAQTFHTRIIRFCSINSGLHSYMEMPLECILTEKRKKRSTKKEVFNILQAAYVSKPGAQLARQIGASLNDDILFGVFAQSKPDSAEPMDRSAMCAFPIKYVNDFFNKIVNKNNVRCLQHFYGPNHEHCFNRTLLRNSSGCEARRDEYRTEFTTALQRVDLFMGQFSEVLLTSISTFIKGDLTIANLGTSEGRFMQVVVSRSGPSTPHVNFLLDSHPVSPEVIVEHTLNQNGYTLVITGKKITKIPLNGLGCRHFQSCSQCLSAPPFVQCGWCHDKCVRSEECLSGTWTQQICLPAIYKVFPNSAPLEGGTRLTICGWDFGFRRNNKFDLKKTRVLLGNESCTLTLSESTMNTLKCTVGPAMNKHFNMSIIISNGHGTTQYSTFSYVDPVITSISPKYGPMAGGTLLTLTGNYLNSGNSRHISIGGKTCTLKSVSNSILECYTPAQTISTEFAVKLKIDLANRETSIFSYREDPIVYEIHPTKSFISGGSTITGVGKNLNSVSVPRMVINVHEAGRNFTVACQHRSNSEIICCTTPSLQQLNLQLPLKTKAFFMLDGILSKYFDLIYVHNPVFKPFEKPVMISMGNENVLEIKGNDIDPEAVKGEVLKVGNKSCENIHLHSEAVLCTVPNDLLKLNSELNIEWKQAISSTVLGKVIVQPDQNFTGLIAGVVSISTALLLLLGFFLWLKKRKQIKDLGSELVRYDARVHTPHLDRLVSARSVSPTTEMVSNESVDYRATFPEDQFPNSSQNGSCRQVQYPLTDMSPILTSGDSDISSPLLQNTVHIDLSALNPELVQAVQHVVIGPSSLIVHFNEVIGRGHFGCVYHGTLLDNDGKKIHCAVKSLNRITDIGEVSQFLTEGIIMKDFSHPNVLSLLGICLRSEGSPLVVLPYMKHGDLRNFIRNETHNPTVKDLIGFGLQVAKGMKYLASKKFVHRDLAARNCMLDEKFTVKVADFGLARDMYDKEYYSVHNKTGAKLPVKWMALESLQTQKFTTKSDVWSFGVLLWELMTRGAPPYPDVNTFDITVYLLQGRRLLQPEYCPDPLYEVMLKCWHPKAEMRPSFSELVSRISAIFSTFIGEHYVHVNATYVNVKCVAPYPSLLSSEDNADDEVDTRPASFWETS
Vascular endothelial growth factor receptor 2, sequence (P35968 whole entry): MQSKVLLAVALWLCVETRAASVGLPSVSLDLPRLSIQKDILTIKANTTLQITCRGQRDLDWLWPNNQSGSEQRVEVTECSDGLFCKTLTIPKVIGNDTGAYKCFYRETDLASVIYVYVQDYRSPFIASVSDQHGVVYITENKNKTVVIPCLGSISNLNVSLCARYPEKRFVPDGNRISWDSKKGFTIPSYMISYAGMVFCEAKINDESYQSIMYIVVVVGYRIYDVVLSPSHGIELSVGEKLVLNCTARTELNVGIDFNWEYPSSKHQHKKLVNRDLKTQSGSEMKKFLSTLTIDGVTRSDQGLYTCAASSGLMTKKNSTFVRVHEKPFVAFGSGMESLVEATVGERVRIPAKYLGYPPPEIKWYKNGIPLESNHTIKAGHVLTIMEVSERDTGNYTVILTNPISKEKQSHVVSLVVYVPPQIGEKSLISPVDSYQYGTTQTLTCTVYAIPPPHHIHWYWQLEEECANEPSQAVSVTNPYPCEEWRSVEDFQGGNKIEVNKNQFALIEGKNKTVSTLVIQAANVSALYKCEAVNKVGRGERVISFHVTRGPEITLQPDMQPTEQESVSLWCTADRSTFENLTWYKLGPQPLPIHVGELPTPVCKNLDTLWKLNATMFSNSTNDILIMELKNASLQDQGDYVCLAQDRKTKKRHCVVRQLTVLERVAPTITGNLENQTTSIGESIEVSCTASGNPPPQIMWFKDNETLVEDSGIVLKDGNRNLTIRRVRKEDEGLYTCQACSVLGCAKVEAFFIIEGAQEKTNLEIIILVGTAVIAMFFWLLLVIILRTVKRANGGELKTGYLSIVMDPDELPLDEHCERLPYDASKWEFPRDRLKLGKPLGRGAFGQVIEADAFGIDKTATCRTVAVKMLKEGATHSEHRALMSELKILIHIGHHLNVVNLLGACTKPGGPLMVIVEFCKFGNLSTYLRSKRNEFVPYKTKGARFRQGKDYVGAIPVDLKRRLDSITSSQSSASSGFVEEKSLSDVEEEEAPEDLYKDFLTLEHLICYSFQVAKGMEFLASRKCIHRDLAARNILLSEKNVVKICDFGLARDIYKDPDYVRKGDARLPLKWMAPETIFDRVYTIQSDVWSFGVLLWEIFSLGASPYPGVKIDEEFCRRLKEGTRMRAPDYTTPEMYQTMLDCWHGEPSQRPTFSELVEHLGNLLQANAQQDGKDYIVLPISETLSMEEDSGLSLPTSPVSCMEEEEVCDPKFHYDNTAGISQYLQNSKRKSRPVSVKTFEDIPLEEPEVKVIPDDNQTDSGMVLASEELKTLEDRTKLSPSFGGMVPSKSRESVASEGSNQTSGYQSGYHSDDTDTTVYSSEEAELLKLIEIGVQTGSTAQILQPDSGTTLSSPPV

IC50 [1] [µM]	IC50 [2] [µM]	IC50 [3] [µM]	IC50 [4] [µM]	IC50 [5] [µM]	IC50 [6] [µM]	SMILES
> 10	> 10	> 10	> 10	> 10	> 10	N[C@@H](CCCCN=CC1C(=O)Nc2ccc(Br)cc21)C(=O)O (stereo partly drawn) [(Z/E)-(2S)-2-amino-6-([(5-bromo-2-oxo-indolin-3-ylidene)methyl]amino)hexanoic acid hydrochloride]
> 10	> 10	> 10	> 10	> 10	> 10	N[C@@H](CCCN=CC1C(=O)Nc2ccccc21)C(=O)O (stereo partly drawn) [(Z/E)-(2S)-2-amino-5-([(2-oxo-indolin-3-ylidene)methyl]amino)pentanoic acid hydrochloride]
> 10	> 10	> 10	> 10	> 10	> 10	N[C@@H](CCCCN=CC1C(=O)Nc2ccccc21)C(=O)O (stereo partly drawn) [(Z/E)-(2S)-2-amino-6-([(2-oxo-indolin-3-ylidene)methyl]amino)hexanoic acid hydrochloride]
